The test system of one series is KG-1a cells. Nature of the series: Viability with trypan blue of cells cultured in Pd-supplemented media. The format is cell-based. The following applies: 500 ppb Pd in growth media, 72 hours. How it is done:
(§1) The experiment was set up to investigate if metals passively accumulated by cells could be indicative of cell number and cell type. For this purpose two different leukemia cell lines were cultured for 72 hours in growth media supplemented with very low amounts of rare earth metals: 100 ppb Rh was added to MBA-1 cells, and 500 ppb Pd was added to KG-1a cells which express the cell surface marker. During the three days of cell culture, aliquots of cells were tested for viability with trypan blue. […] Cells were collected by centrifugation (1200 rpm, 10 minutes), washed once in PBS/10% FBS and counted in a hemocytometer. Serial dilutions were prepared to give 1×10^6, 0.5×10^6, 1×10^5, 1×10^4, 1×10^3, and 1×10^2 KG-1a cells in a population of MBA-1 cells (1×10^6) per tube in triplicates (Table 1). In this example Pd will reflect the number of KG-1a cells and the presence of surface marker CD34 will specify the cell type, while MBA-1 cells are marked by Rh. Immunolabeling was carried out by adding anti-CD34 antibodies to tubes containing decreasing amounts of live KG-1a cells and incubating for 45 minutes on ice. Negative control tubes were reacted with the IgG1 isotype control immunoglobulins. After three low speed centrifugation washes with PBS/10% FBS all samples were incubated with biotinylated anti-mouse antibodies. […]

The test system of series [1] is MBA-1 cells. Nature of the series: Viability with trypan blue of cells cultured in Rh-supplemented media. Format: cell-based. The following applies: 100 ppb Rh in growth media, 72 hours. Here is the method:
as §1

The subject of series [2] is MBA-1 cells.
Experimental: Reactivity of the Rh(III) metallointercalator with fixed and fixed/permeabilized versus live cells was also examined. Equal amounts of MBA-1 cells (1×10^6) were either fixed/permeabilized as above, fixed in 3.7% formaldehyde alone or left untreated (live cells). After two washes in PBS the cells were incubated with 200 uM [Rh(phi)2bpy]Cl3 for 30 minutes; washed three more times and dissolved in HCl.
The subject of another series is DNA. The conditions noted are these: rhodium/base pair ratios of 2:1; cited from earlier work.
The test system of series [3] is MBA-1 cells. Kind of series: Binding of increasing concentrations of Rh(III) intercalator to fixed/permeabilized cells, ICP-MS. The format is cell-based. The following applies: 2.5 nanoM to 250 microM, 45 minutes, 1×10^6 fixed/permeabilized cells; linear response. Here is the method: Binding of an intercalator to DNA is governed by the law of mass action. Assuming that a mammalian cell in G1 phase has 3.3×10^9 DNA base pairs of which only 10-70% are free from protein interaction (nucleosomes) and available for binding with the intercalator (one molecule per two base pairs at saturation), the number of molecules of dye needed is approximately 1-10×10^8. Thus for [Rh(phi)2bpy]Cl3, with 671 MW, 1 ml of 200 uM solution should be 100-fold excess of intercalator over DNA binding sites for 1×10^6 cells. The binding of various amounts of the Rh(III) intercalator with cultured cells was assessed. MBA-1 cells were fixed in 3.7% formaldehyde/PBS for 15 minutes, followed by permeabilization with 0.3% TRITON™ X-100/PBS; washed once with PBS and incubated for 45 minutes with 1 ml of increasing concentrations of [Rh(phi)2bpy]Cl3 from 2.5 nanoM to 250 microM. Each sample contained 1×10^6 cells, run in triplicates. Following washing, the cell pellets were treated with concentrated HCl, mixed with an equal volume of 1 ppb Ir internal standard, and analyzed in solution by ICP-MS.

A further series has as its system K562 cells. Nature of the series: Cell cycle synchronization checked by propidium iodide flow cytometry. Format: cell-based. How it is done: Cells were synchronized in G1/S and G2/M phases of the cell cycle using a DNA synthesis inhibitor, thymidine, followed by a mitotic inhibitor, nocodazole. The DNA content of the G0/G1 phase is centered at 2n. Treatment with double thymidine results in a G1/S-phase arrested cell population with approximately […]. Nocodazole addition following a single thymidine treatment arrests cells in the G2/M stage with 4n DNA content. K562 cells were treated with 2 mM thymidine added to culture medium for 17 hours. The cells were then washed and incubated in fresh media for 9 hours. At the end of this rest period the culture was split into two flasks—one received the second dose of 2 mM thymidine (double thymidine block) to arrest cells at G1/S; the other—0.2 ug/ml nocodazole (single thymidine-nocodazole block) to arrest cells at the M phase. The inhibitors were left in culture media for 17 hours. […] After several washes the cells were digested in concentrated HCl and analyzed by ICP-MS. […] Treatment of stained cells with enzymes shifts the detected Rh values due to enhanced binding of metallointercalator to naked DNA. […] In the case of RNAse A treatment—degradation of small RNA molecules bound to DNA such as siRNA that may block interaction of intercalator and DNA may lead to higher detected Rh values.
(Flow cytometry measures light scatter and fluorescence of single cells or particles in a stream.)

Structures are written as SMILES.

Consider `[Pd]` [Pd, palladium], for which the “Cell death due to presence of metal in media” value in the series with KG-1a cells is “No excessive cell death”.

Take `[Rh]` [Rh, rhodium]: the “Cell death due to presence of metal in media” value in the series on MBA-1 cells [1] is on record as “No excessive cell death”.

For the molecule `[Cl-].[Cl-].[Cl-].[NH-]c1c([NH-])c2ccccc2c2ccccc12.[NH-]c1c([NH-])c2ccccc2c2ccccc12.[Rh].c1ccc(-c2ccccn2)nc1` [[Rh(phi)2bpy]Cl3], the “Membrane permeability in live cells” value in the series with MBA-1 cells [2] is “membrane impermeable”. Besides, the “Sequence dependence of binding to DNA” value with DNA was “sequence neutral and random”. In the series on MBA-1 cells [3], the “Saturation of DNA binding (normalized Rh signal response)” value is on record as “without reaching a saturation limit”.

`COC(=O)Nc1nc2ccc(C(=O)c3cccs3)cc2[nH]1` [nocodazole]: the “Cell cycle phase after block” value in the series with K562 cells (single thymidine-nocodazole block, 0.2 ug/ml nocodazole, 17 hours) is listed as “practically all cells were in M phase”.

In the case of `Cc1cn([C@H]2C[C@H](O)[C@@H](CO)O2)c(=O)[nH]c1=O` [thymidine], the “Cell cycle phase after block” value with K562 cells (double thymidine block, 2 mM, 17 hours each) is “majority of cells were in G1/S”.
